In patent publication US20060110385A1, “Means and methods for diagnosing and treating affective disorders” (Affectis Pharmaceuticals AG, priority 2003, published 2006):
Entries after “also recorded” stand apart in the source; their conditions may differ.

Experiments:
mice = test: Open field test (locomotor activity) after BzATP; assay type: in vivo, mouse; conditions: 50 μM BzATP, 24 hours after injection, 30 minutes
Experimental: Locomotor activity was monitored for a period of 30 minutes using a video camera. Overall distance travelled by the animals during the testing period was then analysed by means of VideoMot2 computer software (TSE GmbH, Bad Homburg).

P2X7R [1] = target: T1, P2X7R (Mus musculus, UniProt Q9Z1M0); test: Calcium influx into HT-22 cells (Oregon green AM ester); assay type: cell-based; conditions: 100 μM BzATP, 15 minutes
T1 construct: endogenous in cells; host or cells: HT-22 (immortalised mouse hippocampal cell line)
T1 sequence (Q9Z1M0 1-595): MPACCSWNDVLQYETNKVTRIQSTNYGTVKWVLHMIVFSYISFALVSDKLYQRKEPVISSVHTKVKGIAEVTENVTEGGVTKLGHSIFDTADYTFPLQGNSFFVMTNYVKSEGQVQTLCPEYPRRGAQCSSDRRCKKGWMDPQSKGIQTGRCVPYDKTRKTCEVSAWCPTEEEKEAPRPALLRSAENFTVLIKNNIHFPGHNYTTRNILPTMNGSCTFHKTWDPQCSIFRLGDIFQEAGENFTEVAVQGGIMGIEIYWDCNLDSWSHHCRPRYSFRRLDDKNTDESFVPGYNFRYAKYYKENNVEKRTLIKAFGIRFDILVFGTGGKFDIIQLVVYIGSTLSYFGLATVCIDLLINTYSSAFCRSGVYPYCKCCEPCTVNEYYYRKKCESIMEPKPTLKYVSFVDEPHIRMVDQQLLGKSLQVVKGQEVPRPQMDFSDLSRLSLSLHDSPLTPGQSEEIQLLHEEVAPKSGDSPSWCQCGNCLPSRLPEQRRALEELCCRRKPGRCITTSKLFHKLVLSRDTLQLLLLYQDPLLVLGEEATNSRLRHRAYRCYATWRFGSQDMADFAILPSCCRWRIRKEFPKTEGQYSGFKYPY
Excerpt: Since P2X7R is an ATP-gated ion channel which allows the entry of calcium and sodium ions into cells, a method for identifying P2X7R agonist was established by monitoring calcium influx into HT-22 cells. […] Calcium movement into the cells was visualised under a fluorescent microscope with a fluorescein filter (wavelength 492/517 nm). Oregon green AM ester is a fluorescent dye that binds to intracellular calcium.
Activation of P2X7R by the agonist was inhibited by oATP (FIG. 18) as illustrated by the absence of green fluorescence in the cells.

P2X7R [2] = target: T2, P2X7R (Homo sapiens, UniProt Q99572); conditions: dose response curve, Y-axis ion current; cited from earlier work
T2 sequence (Q99572 1-595): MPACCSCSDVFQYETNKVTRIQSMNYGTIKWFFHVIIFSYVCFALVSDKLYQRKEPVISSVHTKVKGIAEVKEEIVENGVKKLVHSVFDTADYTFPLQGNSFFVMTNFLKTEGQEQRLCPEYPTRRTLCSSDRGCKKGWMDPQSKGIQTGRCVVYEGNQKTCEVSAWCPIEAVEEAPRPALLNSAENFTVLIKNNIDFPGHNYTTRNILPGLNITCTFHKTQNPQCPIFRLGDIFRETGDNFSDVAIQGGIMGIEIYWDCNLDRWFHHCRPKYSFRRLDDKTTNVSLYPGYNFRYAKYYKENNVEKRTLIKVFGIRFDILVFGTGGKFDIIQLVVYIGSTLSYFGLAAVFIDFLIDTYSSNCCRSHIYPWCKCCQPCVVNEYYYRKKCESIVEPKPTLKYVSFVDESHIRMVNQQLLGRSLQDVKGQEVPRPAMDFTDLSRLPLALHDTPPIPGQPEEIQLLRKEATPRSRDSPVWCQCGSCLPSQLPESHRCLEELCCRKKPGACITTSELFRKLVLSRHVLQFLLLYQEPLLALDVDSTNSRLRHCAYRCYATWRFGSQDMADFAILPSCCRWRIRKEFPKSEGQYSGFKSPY

P2X7R [3] = target: T2, P2X7R; test: Calcium entry (Fluo-4 AM) in HT-22 cells overexpressing human P2X7R; assay type: cell-based; set-up: expressed in transfected cells; conditions: 20 μM BzATP or 50 μM tenidap
Excerpt: Yet another method for identifying P2X7R agonists was devised by generating a immortalised mouse cell line that overexpresses the human P2X7R gene under the control of the human cytomegalovirus (CMV) early promoter/enhancer region. The human P2X7R cDNA was inserted into the pcDNA3.1 vector (Invitrogen) and transfected into the mouse hippocampal cell line HT-22 using Lipofectamine (Invitrogen) according to the manufacturer's specifications. One day after transfection, culture medium containing 500 μg/ml G418 was added to the cells. Resistant clones were separately isolated and cultured 14 days after applying the selection medium.
The agonistic activity of a compound was evaluated by measuring calcium entry in the cells that overexpress the human P2X7R. Cells were cultured in 96 well plates and incubated at 37° C. with 5% CO2 DMEM with 10% foetal calf serum (Gibco) until they reached confluence. Cells were then loaded for one hour with 10 μM of Fluo-4 AM (Molecular Probes). Fluo-4 AM is a fluorescent dye that binds to intracellular calcium. […] Agonist activity was detected by measuring an increase in calcium influx which results in increased binding to Fluo-4 AM and increased fluorescence. Changes in fluorescence signal are measured using a Fluostar Optima plate reader (BMG biotech). […] Thus, both compound stimulated the activity of P2X7R which results in an influx of ions into the cells.

In the case of “2′-3′-O-(4-Benzoylbenzoyl)adenosine 5′-triphosphate [BzATP]”, the “locomotor activity (overall distance travelled)” value (mice) is given as “No difference in locomotor activity”, the “calcium influx (green fluorescence)” value (P2X7R [1]) is given as “Increase calcium influx; also recorded: increase in green fluorescence” and the EC50 (P2X7R [2]) is given as 8 µM. The “fluorescence intensity (calcium influx, Fluo-4 AM)” value (P2X7R [3]) was “rapid increase in fluorescence intensity”.
